Experimental data published in the supplement of paper PMC13380429.

Experiments:
Details in all cases: 72 h
Caco-2 [1] = experiment: drug sensitivity score (DSS) for viability; higher = more toxic; extreme values may be limits of the assay
HepG2 [2] = experiment: as above
Calu-3 [3] = experiment: as above
Vero E6 [4] = experiment: as above
U2OS [5] = experiment: as above
Caco-2 [6] = experiment: relative viability EC50 (midpoint between 100% and the lowest measured viability); higher = less toxic
HepG2 [7] = experiment: as above
Calu-3 [8] = experiment: as above
Vero E6 [9] = experiment: as above
U2OS [10] = experiment: as above
Caco-2 [11] = experiment: cell viability relative to DMSO; higher = less toxic
HepG2 [12] = experiment: as above
Calu-3 [13] = experiment: as above
Vero E6 [14] = experiment: as above
U2OS [15] = experiment: as above

SMILES | drug sensitivity score (Caco-2 [1]) | drug sensitivity score (HepG2 [2]) | drug sensitivity score (Calu-3 [3]) | drug sensitivity score (Vero E6 [4]) | drug sensitivity score (U2OS [5]) | relative viability EC50 (Caco-2 [6]) [µM] | relative viability EC50 (HepG2 [7]) [µM] | relative viability EC50 (Calu-3 [8]) [µM] | relative viability EC50 (Vero E6 [9]) [µM] | relative viability EC50 (U2OS [10]) [µM] | cell viability (Caco-2 [11]; 1 nM) [%] | cell viability (Caco-2 [11]; 10 nM) [%] | cell viability (Caco-2 [11]; 100 nM) [%] | cell viability (Caco-2 [11]; 1000 nM) [%] | cell viability (Caco-2 [11]; 10000 nM) [%] | cell viability (HepG2 [12]; 1 nM) [%] | cell viability (HepG2 [12]; 10 nM) [%] | cell viability (HepG2 [12]; 100 nM) [%] | cell viability (HepG2 [12]; 1000 nM) [%] | cell viability (HepG2 [12]; 10000 nM) [%] | cell viability (Calu-3 [13]; 1 nM) [%] | cell viability (Calu-3 [13]; 10 nM) [%] | cell viability (Calu-3 [13]; 100 nM) [%] | cell viability (Calu-3 [13]; 1000 nM) [%] | cell viability (Calu-3 [13]; 10000 nM) [%] | cell viability (Vero E6 [14]; 1 nM) [%] | cell viability (Vero E6 [14]; 10 nM) [%] | cell viability (Vero E6 [14]; 100 nM) [%] | cell viability (Vero E6 [14]; 1000 nM) [%] | cell viability (Vero E6 [14]; 10000 nM) [%] | cell viability (U2OS [15]; 1 nM) [%] | cell viability (U2OS [15]; 10 nM) [%] | cell viability (U2OS [15]; 100 nM) [%] | cell viability (U2OS [15]; 1000 nM) [%] | cell viability (U2OS [15]; 10000 nM) [%]
CC(=O)N[C@H](Cc1ccc2ccccc2c1)C(=O)N[C@H](Cc1ccc(Cl)cc1)C(=O)N[C@H](Cc1cccnc1)C(=O)N[C@@H](CO)C(=O)N[C@@H](Cc1ccc(NC(=O)[C@@H]2CC(=O)NC(=O)N2)cc1)C(=O)N[C@H](Cc1ccc(NC(N)=O)cc1)C(=O)N[C@@H](CC(C)C)C(=O)N[C@@H](CCCCNC(C)C)C(=O)N1CCC[C@H]1C(=O)N[C@H](C)C(N)=O [degarelix] | 0 | 0 | 0 | 0 | 0 | > 10 | > 10 | > 10 | > 10 | > 10 | 90.3 | 92.8 | 99.9 | 90.4 | 99.6 | 103 | 80.7 | 112 | 91 | 110 | 103 | 104 | 91.7 | 91.9 | 96.6 | 95.6 | 93.8 | 92 | 89.8 | 101 | 97.1 | 97 | 98.7 | 99.9 | 101
COc1cccc(CN(C(=O)CC(C)(C)C)[C@H]2C[C@@H](C(=O)N3CCNCC3)N(Cc3ccc4c(c3)OCO4)C2)c1 | 0 | 0 | 0 | 0 | 0 | > 10 | > 10 | > 10 | > 10 | > 10 | 98.4 | 106 | 98.3 | 102 | 87.5 | 94.8 | 96.2 | 87.2 | 104 | 91.4 | 93.6 | 98 | 95.3 | 92.4 | 102 | 101 | 102 | 107 | 98.2 | 95.6 | 95.2 | 98 | 97.3 | 97 | 90.7
O=C(Nc1ccccc1)N1CCN(c2nc(-c3ccccc3)ns2)CC1 | 0.4 | 0.6 | 0 | 0.3 | 0 | > 10 | > 10 | > 10 | > 10 | > 10 | 100 | 97.8 | 101 | 95.4 | 86.7 | 100 | 118 | 101 | 106 | 76.9 | 116 | 102 | 106 | 96.8 | 102 | 93.3 | 96.3 | 94.1 | 93 | 83 | 104 | 99.5 | 97.8 | 99.6 | 98.9
C#C[C@]1(OC(C)=O)CC[C@H]2[C@@H]3CCC4=CC(=NO)CC[C@@H]4[C@H]3CC[C@@]21CC (mixture of isomers) [norgestimate] | 0 | 0 | 0 | 0 | 0 | > 10 | > 10 | > 10 | > 10 | > 10 | 98.3 | 87.7 | 73.4 | 93 | 92.4 | 108 | 97.6 | 107 | 91.3 | 111 | 98.6 | 104 | 102 | 106 | 104 | 99 | 94 | 99.2 | 99.6 | 102 | 97 | 104 | 94.3 | 99.6 | 96.2
COc1cc(C(=O)NC2CCCNC2)cc(OC)c1OC (stereo not given) [troxipide] | 0 | 0 | 0 | 0 | 0 | > 10 | > 10 | > 10 | > 10 | > 10 | 99 | 103 | 98.4 | 97.4 | 99.6 | 103 | 109 | 97.4 | 103 | 104 | 97.5 | 91.3 | 94 | 106 | 97.8 | 103 | 109 | 101 | 102 | 98.4 | 106 | 96.3 | 102 | 98.8 | 101
OC[C@H]1O[C@H](O[C@H]2O[C@H](CO)[C@@H](O)[C@H](O)[C@H]2O)[C@H](O)[C@@H](O)[C@@H]1O [cabaletta] | 0 | 0 | 0 | 0 | 0 | > 10 | > 10 | > 10 | > 10 | > 10 | 112 | 112 | 83.7 | 97.7 | 94.5 | 130 | 110 | 115 | 110 | 98.2 | 96.2 | 105 | 97.2 | 109 | 96.3 | 110 | 94.3 | 104 | 105 | 99.5 | 99.1 | 103 | 104 | 107 | 106
